Results from ChEMBL document CHEMBL3430912, “GSK Tres Cantos Anti-Kinetoplastid Screening (TCAKS) Data”.

Experiments:
[1] = tested on: Trypanosoma brucei brucei; experiment: GSK_TCAKS: pIC50 Trypanosoma brucei viability assay using luminiscence. Assay plates (1536-well) were prepared. T. brucei cultures were harvested and counted in a CASY cell counter. A parasite suspension was prepared at a final concentration of 5 * 10^4 cells/mL in complete HMI9 medium and 6uL was dispensed to all wells containing compounds using a Multidrop Combi dispenser. 6uL of HMI9 media with 0.4% DMSO were dispensed to control columns. Plates were incubated for 24 h at 37C, 5% CO2 then tempered for 10 min at room temperature. ATP content was quantified by adding 4 uL of CellTiter-Glo Reagent (Promega) according to the manufacturer's instructions. Luminescence was measured using a ViewLux.; assay type: functional, organism-based; settings: Lister 427, CASY
[2] = molecular target: Sterol 14-alpha demethylase (Trypanosoma cruzi (strain CL Brener), UniProt Q7Z1V1); experiment: GSK_TCAKS: pIC50 CYP51 from Trypanosoma cruzi.; assay type: functional
Chain of Sterol 14-alpha demethylase (Q7Z1V1 whole entry): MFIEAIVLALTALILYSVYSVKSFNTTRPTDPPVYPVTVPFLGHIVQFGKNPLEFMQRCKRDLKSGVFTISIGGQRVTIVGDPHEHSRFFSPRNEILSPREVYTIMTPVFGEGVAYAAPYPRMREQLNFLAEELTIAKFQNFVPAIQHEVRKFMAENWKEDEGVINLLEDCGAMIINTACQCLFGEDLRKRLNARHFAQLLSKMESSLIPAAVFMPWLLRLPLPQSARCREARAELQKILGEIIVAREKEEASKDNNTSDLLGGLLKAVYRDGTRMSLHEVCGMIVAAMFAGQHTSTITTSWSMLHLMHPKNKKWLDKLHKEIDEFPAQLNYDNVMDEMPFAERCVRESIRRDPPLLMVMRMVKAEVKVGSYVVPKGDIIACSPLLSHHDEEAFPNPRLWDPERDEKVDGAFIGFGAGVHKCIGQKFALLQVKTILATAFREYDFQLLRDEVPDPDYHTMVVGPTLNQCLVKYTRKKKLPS

Trypanosoma cruzi [3] = experiment: (§1) GSK_TCAKS: pIC50 H2C9 Imaging: H9c2 Host Cardiomyocytes. […] Cells were then washed once with PBS before infection. T. cruzi trypomastigotes, collected at days 5 to 8 after infection from LLC-MK2 parasite infected cultures, were allowed to swim out for 4h at 37C from a centrifuged pellet (2,500 rpm/10 min/room temperature). Trypomastigotes were then collected and counted in a CASY Cell Counter. Trypomastigotes, in supplemented DMEM, were added to H9c2 cultures in a multiplicity of infection of 1 and incubated for 18 h. Cells were washed once with PBS before incubation of the infected H9c2 monolayer with trypsin (Life-Technologies) to detach cells from the flask. Cells were counted in a CASY Cell Counter using a 150 um capillary and their density set at 5 * 10^4 cells per mL in supplemented assay DMEM. Infected H9c2 were dispensed into 384-well poly-lysine coated assay plates at 50uL per well using a Multidrop Combi dispenser. After seeding them, the plates were incubated at 37C, 5% CO2 for 72h. Cultures were then fixed and stained by addition of 50 uL of a solution containing 8% formaldehyde and 4 uM DRAQ5 DNA dye (BioStatus, UK) per well. […] Five images were collected per well for reliable statistical analysis. Automated image analysis was performed with a script developed on Acapella High Content Imaging and Analysis Software (PerkinElmer). Output: Number of H9c2 Host Cardiomyocytes nuclei to determine drug-related cytotoxicity.; assay type: functional, organism-based, Rattus norvegicus; settings: H9c2, 4 h
Trypanosoma cruzi [4] = experiment: as §1, with “Trypanosoma cruzi” for “H2C9”, “Infected Cells.” for “H9c2 Host Cardiomyocytes.”, “percentage” for “Number”, “infected cells per well as a second infection marker.” for “H9c2 Host Cardiomyocytes nuclei to determine drug-related cytotoxicity.”; assay type: functional, organism-based, Rattus norvegicus; settings: H9c2, 4 h
Leishmania donovani [5] = experiment: GSK_TCAKS: pIC50 Leishmania donovani viability assay using fluorescence intensity. Assay plates (1536-well) were prepared by adding 30nL per well of compound. For single shot assay, the final compound concentration was 5uM. […] Briefly, eGFP LdBOB axenic amastigotes were harvested, fixed and counted in a CASY cell counter (Roche-Applied Science). A final concentration of 1.5 * 10^5 cells per well were prepared in amastigote media containing 500 U/mL penicillin/streptomycin (Invitrogen) and 6uL was dispensed to each experimental well using a Multidrop Combi dispenser (Thermo Scientific). 6uL of assay media was dispensed to control columns used as reference for 100% compound response. Following incubation for 72 h at 37C, 5% CO2, 2 uL of resazurin was added to each well at a final concentration of 0.5 mM in phosphate buffered saline (PBS) with IGEPAL (Sigma-Aldrich), 0.05% (v/v).; assay type: functional, organism-based
Leishmania donovani [6] = experiment: (§2) GSK_TCAKS: pIC50 Leishmania donovani Imaging: Infected Macrophages. Assay plates (384-well) were prepared by adding 250nL of compound to each well. For single shot assay, the final compound concentration was 5 uM. […] Automated image analysis was performed with a script developed on Acapella High Content Imaging and Analysis Software (PerkinElmer). Output: Percent of infected macrophage cells were reported for each well.; assay type: functional, organism-based, Homo sapiens; settings: THP-1
Trypanosoma cruzi [7] = experiment: as §1, with “Trypanosoma cruzi” for “H2C9”, “Amastigotes/Cell.” for “H9c2 Host Cardiomyocytes.”, “number” for “Number”, “amastigotes per cell as infection level measurement.” for “H9c2 Host Cardiomyocytes nuclei to determine drug-related cytotoxicity.”; assay type: functional, organism-based, Rattus norvegicus; settings: H9c2, 4 h
Leishmania donovani [8] = experiment: as §2, with “THP-1 Host” for “Infected”, “THP-1 cell count” for “Percent of infected macrophage cells”; assay type: functional, organism-based, Homo sapiens
[9] = tested on: Trypanosoma brucei brucei; experiment: GSK_TCAKS: pIC50 Trypanosoma brucei viability assay using fluorescence intensity. Assay plates (1536-well) were prepared by dispensing 25nL of compound solution per well using an Echo acoustic dispenser (Labcyte).; assay type: functional, organism-based; settings: Lister 427, 2 h
Trypanosoma cruzi [10] = experiment: GSK_TCAKS: pIC50 Trypanosoma cruzi viability assay using beta-GAL activity. This assay was run at single shot at 5uM compound concentration per well. The biological reagents consisted of NIH-3T3 host cells and trypomastigotes parasitic cells; both cell types were set to a 3.3 * 10^5 cells/mL dilution in assay DMEM by means of a CASY cell counter device using a 60um capillary. 6 uL of the mixture were dispensed per well (about 1 * 10^3 host-cells and 1 * 10^3 parasites) with a Multidrop Combi dispenser. […] In all wells, the percentage of DMSO never exceeded 0.5%. Plates incubated for four days at 37C, 5% CO2. The substrate used for the assay fluorescence intensity (FLINT) readout was resorufin-beta-D-galactopiranoside (Sigma-Aldrich) at 5uM per well. It was diluted in PBS supplemented with the soft detergent Igepal (Fluka).; assay type: functional, organism-based, Mus musculus; settings: Tulahuen, NIH3T3
[11] = GSK_TCAKS: pIC50 HepG2 human cell line viability assay using luminiscence. […] Seeding density was checked to ensure that new mono-layers were not more than 50% confluent at the time of harvesting. Cell suspension was added to 500 mL of the same medium at a final density of 1.2 * 10^5 cells/mL. This cell suspension was dispensed (25 uL, 3000 cells per well) into 384-well clear-bottom plates using a Multidrop Combi dispenser. Prior to addition of the cell suspension, the screening compounds (250 nL) were pre-dispensed into the plates with an Echo liquid handler. Plates were incubated for 48 h at 37C, 5% CO2. After incubation, plates equilibrated at room temperature for 30 min before proceeding to develop the luminescent signal. The signal developer, CellTiter-Glo Reagent, was allowed to equilibrate at room temperature for 30 min and added to the plates (25uL per well) using a Multidrop Combi dispenser. Plates were left for 10 min at room temperature for stabilization and then read using a ViewLux.; assay type: toxicity, cell-based
Leishmania donovani [12] = experiment: as §2, with “Amastigotes/Macrophages.” for “Infected Macrophages.”, “Average number” for “Percent”, “amastigotes per” for “infected”, “cell” for “cells”; assay type: functional, organism-based, Homo sapiens; settings: THP-1

CNC(=O)C1Cc2ccccc2N1C(=O)Cc1ccc(OC)cc1 (stereo unspecified)
IC50 [1]: 0.501 µM | IC50 [2]: > 100 µM | IC50 (Trypanosoma cruzi [3]): > 50.1 µM | IC50 (Trypanosoma cruzi [4]): > 50.1 µM | IC50 (Leishmania donovani [5]): > 50.1 µM | IC50 (Leishmania donovani [6]): 7.94 µM | IC50 (Trypanosoma cruzi [7]): > 50.1 µM | IC50 (Leishmania donovani [8]): 7.94 µM | IC50 [9]: 0.398 µM | IC50 (Trypanosoma cruzi [10]): > 50.1 µM | IC50 at 48 h [11]: > 100 µM | IC50 (Leishmania donovani [12]): 12.6 µM

CCOc1ccc(CC(=O)N2c3ccccc3CC2C(=O)NC)cc1 (stereo unspecified)
IC50 [1]: 0.501 µM | IC50 [2]: > 100 µM | IC50 (Trypanosoma cruzi [3]): > 50.1 µM | IC50 (Trypanosoma cruzi [4]): > 50.1 µM | IC50 (Leishmania donovani [5]): > 50.1 µM | IC50 (Leishmania donovani [6]): > 50.1 µM | IC50 (Trypanosoma cruzi [7]): > 50.1 µM | IC50 (Leishmania donovani [8]): > 50.1 µM | IC50 [9]: 0.501 µM | IC50 (Trypanosoma cruzi [10]): > 50.1 µM | IC50 at 48 h [11]: > 100 µM | IC50 (Leishmania donovani [12]): > 50.1 µM

O=C(CSc1nnc2ccc(-c3ccc(F)cc3)nn12)N1CCCCC1
IC50 [1]: 0.501 µM | IC50 [2]: > 100 µM | IC50 (Trypanosoma cruzi [3]): > 50.1 µM | IC50 (Trypanosoma cruzi [4]): 2 µM | IC50 (Leishmania donovani [5]): > 50.1 µM | IC50 (Leishmania donovani [6]): > 50.1 µM | IC50 (Trypanosoma cruzi [7]): 1 µM | IC50 (Leishmania donovani [8]): 6.31 µM | IC50 [9]: 0.398 µM | IC50 (Trypanosoma cruzi [10]): 2.51 µM | IC50 at 48 h [11]: > 100 µM | IC50 (Leishmania donovani [12]): > 50.1 µM

CC(C)(C)CC(=O)NCCc1csc(-c2ccc(F)cc2)n1
IC50 [1]: 0.501 µM | IC50 [2]: 20 µM | IC50 (Trypanosoma cruzi [3]): > 50.1 µM | IC50 (Trypanosoma cruzi [4]): 1 µM | IC50 (Leishmania donovani [5]): > 50.1 µM | IC50 (Leishmania donovani [6]): 31.6 µM | IC50 (Trypanosoma cruzi [7]): 0.794 µM | IC50 (Leishmania donovani [8]): 15.8 µM | IC50 [9]: 0.631 µM | IC50 (Trypanosoma cruzi [10]): 1.26 µM | IC50 at 48 h [11]: > 100 µM | IC50 (Leishmania donovani [12]): 15.8 µM

O=C(NC(CO)c1ccc(F)cc1)c1ccc(-c2c[nH]c3ncccc23)s1 (stereo unspecified)
IC50 [1]: 0.794 µM | IC50 [2]: 1.26 µM | IC50 (Trypanosoma cruzi [3]): 3.98 µM | IC50 (Trypanosoma cruzi [4]): 15.8 µM | IC50 (Leishmania donovani [5]): 31.6 µM | IC50 (Leishmania donovani [6]): 25.1 µM | IC50 (Trypanosoma cruzi [7]): 12.6 µM | IC50 (Leishmania donovani [8]): 10 µM | IC50 [9]: 0.251 µM | IC50 (Trypanosoma cruzi [10]): 10 µM | IC50 at 48 h [11]: 39.8 µM | IC50 (Leishmania donovani [12]): 20 µM

Nc1nc(-c2ccccc2)cc(-c2nc3cccnc3[nH]2)n1
IC50 [1]: 15.8 µM | IC50 [2]: > 100 µM | IC50 (Trypanosoma cruzi [3]): 12.6 µM | IC50 (Trypanosoma cruzi [4]): 2 µM | IC50 (Leishmania donovani [5]): 3.98 µM | IC50 (Leishmania donovani [6]): 2.51 µM | IC50 (Trypanosoma cruzi [7]): 1.58 µM | IC50 (Leishmania donovani [8]): > 50.1 µM | IC50 [9]: 10 µM | IC50 (Trypanosoma cruzi [10]): 3.16 µM | IC50 at 48 h [11]: 39.8 µM | IC50 (Leishmania donovani [12]): 2.51 µM

CN(C)S(=O)(=O)c1cccc(CSc2nnc(-c3ccc4c(c3)OCO4)o2)c1
IC50 [1]: > 39.8 µM | IC50 [2]: 12.6 µM | IC50 (Trypanosoma cruzi [3]): > 50.1 µM | IC50 (Trypanosoma cruzi [4]): 0.1 µM | IC50 (Leishmania donovani [5]): 1 µM | IC50 (Leishmania donovani [6]): 2 µM | IC50 (Trypanosoma cruzi [7]): 0.0501 µM | IC50 (Leishmania donovani [8]): > 50.1 µM | IC50 [9]: 31.6 µM | IC50 (Trypanosoma cruzi [10]): 0.501 µM | IC50 at 48 h [11]: > 100 µM | IC50 (Leishmania donovani [12]): 0.631 µM

N#CN1CC[C@@H](NC(=O)Nc2ccccc2Oc2ccccc2)C1
IC50 [1]: 7.94 µM | IC50 [2]: > 100 µM | IC50 (Trypanosoma cruzi [3]): 20 µM | IC50 (Trypanosoma cruzi [4]): 3.98 µM | IC50 (Leishmania donovani [5]): 3.16 µM | IC50 (Leishmania donovani [6]): 5.01 µM | IC50 (Trypanosoma cruzi [7]): 5.01 µM | IC50 (Leishmania donovani [8]): 25.1 µM | IC50 [9]: 1 µM | IC50 (Trypanosoma cruzi [10]): 5.01 µM | IC50 at 48 h [11]: 39.8 µM | IC50 (Leishmania donovani [12]): 3.98 µM
